These results are taken from patent US20060211651A1, “Persulfated oligosaccharide acting on selectins and chemokine” (Taisho Pharmaceutical Co., Ltd., priority 2002, published 2006).

Assay [1] relates to secondary lymphoid tissue chemokine. Kind of assay: ELISA, biotinylated versican binding to SLC in presence of glycosaminoglycan. As to conditions: 100 μg/ml glycosaminoglycan; FIG. 5. As for the experimental part: (§1) A well of a 96 well flat bottom microtiter plate was coated with BSA (5 μg/ml), anti-versican monoclonal antibody 2B1 (5 μg/ml), CD44-Ig (7 μg/ml), L-selectin-Ig (3 μg/ml), P-selectin-Ig (3 μg/ml) or chemokine (1 μg/ml), and then blocked with a phosphate buffered physiological saline containing 3% by weight of BSA. As the above chemokine, secondary lymphoid tissue chemokine, γ-interferon inducible protein-10, platelet factor 4, stromal cell-derived factor-1β [manufactured by Pepro Tech] and stromal cell-derived factor-1α [manufactured by Pepro Tech] were used.
(§2) Thereafter, the plate was washed with the buffer A, and enzyme-linked immunosorbent assay was performed in the same manner as that of the previous report [Kawashima, H. et al., J. Biol. Chem., 275, 35448-35456 (2000)]. Binding was determined by measuring absorbance at 620 nm using alkaline phosphatase-conjugated streptavidin and Blue Phos™ substrate. In FIG. 5, expression of an abscissa axis is the same as that of FIG. 4.

The target of assay [2] is T1, stromal cell-derived factor-1β (Homo sapiens, UniProt P48061).
T1 construct: purchased Pepro Tech
T1 sequence (P48061 22-93): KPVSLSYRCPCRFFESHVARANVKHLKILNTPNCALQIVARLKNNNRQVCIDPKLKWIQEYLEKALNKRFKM
Kind of assay: BIAcore surface plasmon resonance, immobilized glycosaminoglycan vs SDF-1β. It counts as binding. Particulars: for Kd / koff / kon: GAG immobilized, 25° C. As for the experimental part:
(§3) Affinity kinetics of the interaction between various CS/DS chains and each of L-selectin, P-selectin, CD44 and chemokine were examined by surface plasmon resonance using BIAcore™ biosensor [manufactured by BIAcore AB].
(§4) All experiments were performed at 25° C. At stages of washing and dissociation, buffer C (20 mM HEPES-NaOH, 0.15M NaCl, 1 mM CaCl2, 1 mM MgCl2, pH6.8) was used as a running buffer.
(§5) First, about 1.8 to 2.0 kiloresonance unit (1 kiloresonance unit=1 ng/mm^2) of streptavidin were covalently immobilized onto B1 sensor chip via a primary amine group using an amine coupling kit [manufactured by Amercham-Bioscience] according to the instruction provided by the manufacturer. The remaining activated groups were blocked with 150 μl of 1M ethanolamine-HCl (pH8.5). Then, each glycosaminoglycan which had been biotinylated at a reducing end was injected to a sensor tip surface by using EZ-link™ biotin-LC-hydrazide [manufactured by Pierce] so as to obtain about 150 resonance unit of an immobilization level, according to the method of Sadir et al. [J. Biol. Chem., 276, 8288-8296 (2001); all teachings of which are hereby incorporated by reference].
(§6) Binding assay was performed by injecting continuously each of various concentrations of secondary lymphoid tissue chemokine, γ-interferon inducible protein-10, stromal cell-derived factor-1β, monomeric L-selectin [manufactured by Genzyme-Techne], monomeric P-selectin [manufactured by Genzyme-Techne] and monomeric CD44, to a glycosaminoglycan-coupled sensor tip at a flow rate of 30 μl/min for 0 to 90 seconds, and then injecting a running buffer thereto. A response in resonance unit was recorded as a function of a time.
(§7) A sensor tip surface was regenerated with 300 μl of 1 M NaCl when chemokine or CD44 was used, or regenerated with 300 μl of 1 M NaCl, and additional 100 μl of 50 mM EDTA (pH8.0), when selectin was used. As a result of regeneration of a sensor tip surface, a remarkable change in a baseline was not observed.
(§8) An affinity kinetic parameter was determined by BIAevaluation 3.0 software [manufactured by Pharmacia Biosensor] using a single site binding model. […] In FIG. 6 and Table 3, SLC denotes secondary lymphoid tissue chemokin, IP-10 denotes γ-interferon inducible protein-10, SDF-1β denotes stromal cell-derived factor-1β, CS E denotes chondroitin sulfate E, and CS A denotes chondroitin sulfate A. In addition, in Table 3, Kd value for the interaction between monomeric CD44 and chondroitin sulfate E is a value calculated from a binding amount at equilibrium, and Kd value of the interaction between CD44 and hyaluronic acid is a value calculated using CD44-Ig.

Assay [3] deals with T2, monomeric CD44 (Homo sapiens, UniProt P16070).
T2 construct: codons of amino acids positions 172 to 178 of human CD44; Myc-His (from vector pcDNA 3.1/Myc-His(+) B) (C); made in house; host or cells: 293T cells, secreted into conditioned medium and purified on anti-CD44 BRIC 235 Sepharose
T2 sequence (P16070 21-178 limits assumed): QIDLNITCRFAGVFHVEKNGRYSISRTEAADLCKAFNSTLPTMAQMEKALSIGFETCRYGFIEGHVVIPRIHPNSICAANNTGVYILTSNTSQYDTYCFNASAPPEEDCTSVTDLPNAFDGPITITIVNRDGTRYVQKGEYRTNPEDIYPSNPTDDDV
Kind of assay: BIAcore surface plasmon resonance, immobilized glycosaminoglycan vs monomeric CD44. It counts as binding. How it is done:
Human-derived CD44 cDNA was prepared by PCR using a sense primer (SEQ ID NO: 1):
Thereafter, the conditioned medium was subjected to immunoaffinity chromatography with anti-CD44 monoclonal antibody BRIC 235-coupled CNBr-activated Sepharose 4B, to obtain monomeric CD44. The resulting soluble CD44 was subjected to SDS-PAGE and silver staining. As a result, the purity of the resulting soluble CD44 was more than 95%.
as §3, §4, §5, §6, §7, §8

The target in assay [4] is T3, platelet factor 4 (Homo sapiens, UniProt P02776).
T3 sequence (P02776 32-101): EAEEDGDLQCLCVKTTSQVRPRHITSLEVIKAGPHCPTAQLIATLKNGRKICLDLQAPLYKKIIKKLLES
The assay can be described thus: ELISA, biotinylated versican binding to PF4 in presence of glycosaminoglycan. As to conditions: 100 μg/ml glycosaminoglycan; FIG. 5. As for the experimental part: as §1, §2

Assay [5] concerns the target T4, monomeric P-selectin (Homo sapiens, UniProt P16109).
T4 construct: purchased Genzyme-Techne
T4 sequence (P16109 42-771 limits assumed): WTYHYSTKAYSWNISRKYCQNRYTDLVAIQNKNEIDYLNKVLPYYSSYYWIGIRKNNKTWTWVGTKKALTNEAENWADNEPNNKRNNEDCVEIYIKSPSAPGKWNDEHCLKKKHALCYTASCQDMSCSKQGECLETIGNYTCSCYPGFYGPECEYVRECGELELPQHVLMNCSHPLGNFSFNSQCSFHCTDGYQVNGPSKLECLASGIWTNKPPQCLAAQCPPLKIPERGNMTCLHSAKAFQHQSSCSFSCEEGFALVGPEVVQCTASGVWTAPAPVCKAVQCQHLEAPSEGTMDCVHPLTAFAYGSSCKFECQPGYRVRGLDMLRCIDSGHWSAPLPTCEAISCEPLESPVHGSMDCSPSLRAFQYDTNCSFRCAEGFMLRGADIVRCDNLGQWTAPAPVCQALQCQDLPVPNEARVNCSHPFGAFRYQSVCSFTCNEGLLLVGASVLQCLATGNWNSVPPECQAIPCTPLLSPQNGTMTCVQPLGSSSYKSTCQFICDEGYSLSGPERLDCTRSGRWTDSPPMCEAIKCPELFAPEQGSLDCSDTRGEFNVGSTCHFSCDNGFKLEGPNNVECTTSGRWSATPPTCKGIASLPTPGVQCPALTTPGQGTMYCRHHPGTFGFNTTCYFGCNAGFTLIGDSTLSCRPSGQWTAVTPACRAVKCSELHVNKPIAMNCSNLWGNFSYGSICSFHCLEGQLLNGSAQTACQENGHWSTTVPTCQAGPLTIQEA
The assay can be described thus: BIAcore surface plasmon resonance, immobilized glycosaminoglycan vs monomeric P-selectin. The assay is classed as binding. Particulars: for Kd / koff / kon: P-selectin, GAG immobilized, 25° C.; for interaction with immobilized glycosaminoglycan (sensorgram): monomeric P-selectin. How it is done: as §3, §4, §5, §6, §7, §8

Where [6] appears, read: CD44 monomeric, GAG immobilized, 25° C.

Regarding chondroitin polysulfate [CPS], in assay [1], the “inhibition of binding between biotinylated versican and secondary lymphoid tissue chemokine” value is listed as “inhibited”. Besides, in assay [2], the Kd was found to be 0.0863 µM, the off-rate (koff) was 0.00304 s⁻¹ and the kon came out at 35200 M⁻¹ s⁻¹. Moreover, the “binding of monomeric CD44 to glycosaminoglycan” value in assay [3] (monomeric CD44) is on record as “did not bind”. In assay [4], the “inhibition of binding between biotinylated versican and platelet factor 4” value was “inhibited”. In assay [5], this substance registered a Kd of 0.0568 µM, an off-rate (koff) of 0.000759 s⁻¹ and an on-rate constant (kon) of 13400 M⁻¹ s⁻¹.

As for chondroitin sulfate A [CS A], the “interaction with immobilized glycosaminoglycan (sensorgram)” value (“interaction” for short) in assay [2] is reported as “did not interact”. In assay [3] (setting [6]), the dissociation constant (Kd) is 85.2 µM, the off-rate (koff) was 0.049 s⁻¹ and the kon was found to be 576 M⁻¹ s⁻¹. For the same substance, the “interaction” value in assay [5] is “did not interact”.

Turning to chondroitin sulfate E [CS E], in assay [1], the “inhibition of binding between biotinylated versican and secondary lymphoid tissue chemokine” value was “inhibited”. In assay [2], the “interaction” value is “bound”, binding was characterised by a dissociation constant (Kd) of 0.293 µM, the koff came out at 0.0053 s⁻¹ and the association rate constant (kon) was found to be 18100 M⁻¹ s⁻¹. The substance also registered a Kd in assay [3] (monomeric CD44, weakly bound, equilibrium value) of 211 µM. The “inhibition of binding between biotinylated versican and platelet factor 4” value in assay [4] was “inhibited”. In assay [5], the dissociation constant Kd was 0.0297 µM, the koff came to 0.00125 s⁻¹, the kon is 42100 M⁻¹ s⁻¹ and the “interaction” value is listed as “bound”.

Consider dermatan polysulfate [DPS], for which, in assay [1], the “inhibition of binding between biotinylated versican and secondary lymphoid tissue chemokine” value is recorded as “inhibited”. Besides, the “binding of monomeric CD44 to glycosaminoglycan” value in assay [3] (monomeric CD44) is listed as “did not bind”. The “inhibition of binding between biotinylated versican and platelet factor 4” value in assay [4] is reported as “inhibited”. For the same substance, in assay [5], the koff was 0.000664 s⁻¹ and the kon amounted to 24000 M⁻¹ s⁻¹.
